In PubChem BioAssay AID1845216 (Molecular Pharmacology Branch, DTP, NCI, 2023):

System: SW 982 tumor spheroid viability
Test: Anticancer human tumor SW 982 cell line growth inhibition;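 also: spheroids exposed to compound for 7 days before readout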
Conditions: spheroids with HUVEC and MSC; for IC50: curve of first compound; for viability, T/C: stronger effect = lower value
How it was run: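 Complex tumor spheroids combined malignant cells with endothelial cells and mesenchymal stem cells. DNA-damaging drugs and DNA repair inhibitors were tested alone and in combination, at half-log dilutions down from clinical Cmax (top 10 microM if Cmax unknown), 0.25% DMSO final.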

[1] = second compound 30 pM, first compound 0.0316 µM
[2] = second compound 30 pM, first compound 0.1 µM
[3] = second compound 30 pM, first compound 0.316 µM
[4] = second compound 30 pM, first compound 1 µM
[5] = second compound 30 pM, first compound 3.16 µM
[6] = second compound 30 pM, first compound 10 µM
[7] = second compound 94.9 pM, first compound 0.0316 µM
[8] = second compound 94.9 pM, first compound 0.1 µM
[9] = second compound 94.9 pM, first compound 0.316 µM
[10] = second compound 94.9 pM, first compound 1 µM
[11] = second compound 94.9 pM, first compound 3.16 µM
[12] = second compound 94.9 pM, first compound 10 µM
[13] = second compound 0.0003 µM, first compound 0.0316 µM
[14] = second compound 0.0003 µM, first compound 0.1 µM
[15] = second compound 0.0003 µM, first compound 0.316 µM
[16] = second compound 0.0003 µM, first compound 1 µM
[17] = second compound 0.0003 µM, first compound 3.16 µM
[18] = second compound 0.0003 µM, first compound 10 µM
[19] = second compound 0.000949 µM, first compound 0.0316 µM
[20] = second compound 0.000949 µM, first compound 0.1 µM
[21] = second compound 0.000949 µM, first compound 0.316 µM
[22] = second compound 0.000949 µM, first compound 1 µM
[23] = second compound 0.000949 µM, first compound 3.16 µM
[24] = second compound 0.000949 µM, first compound 10 µM
[25] = second compound 0.003 µM, first compound 0.0316 µM
[26] = second compound 0.003 µM, first compound 0.1 µM
[27] = second compound 0.003 µM, first compound 0.316 µM
[28] = second compound 0.003 µM, first compound 1 µM
[29] = second compound 0.003 µM, first compound 3.16 µM
[30] = second compound 0.003 µM, first compound 10 µM

Structure (SMILES): CC(C)n1c(=O)n(C)c2cnc3cc(F)c(-c4ccc(OCCCN5CCCCC5)nc4)cc3c21 + COc1cc2c(cc1O)CCNC21CSC2c3c(OC(C)=O)c(C)c4c(c3C(COC1=O)N1C(O)C3Cc5cc(C)c(OC)c(O)c5C(C21)N3C)OCO4
- IC50 (second compound 30 pM): 2850 nM
- IC50 (second compound 94.9 pM): 5660 nM
- IC50 (second compound 0.0003 µM): 2450 nM
- IC50 (second compound 0.000949 µM): < 31.6 nM
- IC50 (second compound 0.003 µM): < 31.6 nM
- viability, T/C [1]: 83.8%
- viability, T/C [2]: 87.3%
- viability, T/C [3]: 83.9%
- viability, T/C [4]: 76.5%
- viability, T/C [5]: 47.3%
- viability, T/C [6]: 42.7%
- viability, T/C [7]: 80.6%
- viability, T/C [8]: 80.5%
- viability, T/C [9]: 79.1%
- viability, T/C [10]: 75.1%
- viability, T/C [11]: 59.8%
- viability, T/C [12]: 40.4%
- viability, T/C [13]: 69.2%
- viability, T/C [14]: 65.5%
- viability, T/C [15]: 72.4%
- viability, T/C [16]: 64.5%
- viability, T/C [17]: 45.9%
- viability, T/C [18]: 37%
- viability, T/C [19]: 32.3%
- viability, T/C [20]: 30.3%
- viability, T/C [21]: 30.6%
- viability, T/C [22]: 43.6%
- viability, T/C [23]: 33.8%
- viability, T/C [24]: 21.6%
- viability, T/C [25]: 0.57%
- viability, T/C [26]: 0.53%
- viability, T/C [27]: 0.47%
- viability, T/C [28]: 0.5%
- viability, T/C [29]: 0.57%
- viability, T/C [30]: 0.64%

Structure (SMILES): CC1COCCN1c1cc(-c2ccnn2C)c2ccnc(-c3ccn[nH]3)c2n1 (stereo not given) + COc1cc2c(cc1O)CCNC21CSC2c3c(OC(C)=O)c(C)c4c(c3C(COC1=O)N1C(O)C3Cc5cc(C)c(OC)c(O)c5C(C21)N3C)OCO4
- IC50 (second compound 30 pM): < 31.6 nM
- IC50 (second compound 94.9 pM): < 31.6 nM
- IC50 (second compound 0.0003 µM): < 31.6 nM
- IC50 (second compound 0.000949 µM): < 31.6 nM
- IC50 (second compound 0.003 µM): < 31.6 nM
- viability, T/C [1]: 30.3%
- viability, T/C [2]: 21.2%
- viability, T/C [3]: 16.3%
- viability, T/C [4]: 14.8%
- viability, T/C [5]: 16.5%
- viability, T/C [6]: 19.5%
- viability, T/C [7]: 28%
- viability, T/C [8]: 19.8%
- viability, T/C [9]: 14.6%
- viability, T/C [10]: 12.7%
- viability, T/C [11]: 16.6%
- viability, T/C [12]: 18.9%
- viability, T/C [13]: 18.7%
- viability, T/C [14]: 16.3%
- viability, T/C [15]: 12.6%
- viability, T/C [16]: 10.9%
- viability, T/C [17]: 14.7%
- viability, T/C [18]: 14.6%
- viability, T/C [19]: 13.8%
- viability, T/C [20]: 10.5%
- viability, T/C [21]: 6.7%
- viability, T/C [22]: 4.79%
- viability, T/C [23]: 3.55%
- viability, T/C [24]: 1.4%
- viability, T/C [25]: 1.23%
- viability, T/C [26]: 1.25%
- viability, T/C [27]: 0.44%
- viability, T/C [28]: 0.7%
- viability, T/C [29]: 0.39%
- viability, T/C [30]: 0.98%

Structure (SMILES): COc1cc(C)[nH]c(=O)c1CN1CCc2c(Cl)cc(C(OC)C3COC3)c(Cl)c2C1=O (stereo not given) + COc1cc2c(cc1O)CCNC21CSC2c3c(OC(C)=O)c(C)c4c(c3C(COC1=O)N1C(O)C3Cc5cc(C)c(OC)c(O)c5C(C21)N3C)OCO4
- IC50 (second compound 30 pM): > 10000 nM
- IC50 (second compound 94.9 pM): > 10000 nM
- IC50 (second compound 0.0003 µM): > 10000 nM
- IC50 (second compound 0.000949 µM): < 31.6 nM
- IC50 (second compound 0.003 µM): < 31.6 nM
- viability, T/C [1]: 98.5%
- viability, T/C [2]: 107%
- viability, T/C [3]: 90.2%
- viability, T/C [4]: 97.7%
- viability, T/C [5]: 102%
- viability, T/C [6]: 107%
- viability, T/C [7]: 90.5%
- viability, T/C [8]: 95.6%
- viability, T/C [9]: 95.7%
- viability, T/C [10]: 103%
- viability, T/C [11]: 99.8%
- viability, T/C [12]: 91.7%
- viability, T/C [13]: 86.9%
- viability, T/C [14]: 82.9%
- viability, T/C [15]: 89.1%
- viability, T/C [16]: 91.3%
- viability, T/C [17]: 84.7%
- viability, T/C [18]: 85.3%
- viability, T/C [19]: 38.3%
- viability, T/C [20]: 48.7%
- viability, T/C [21]: 38%
- viability, T/C [22]: 45.6%
- viability, T/C [23]: 47.3%
- viability, T/C [24]: 28.3%
- viability, T/C [25]: 0.42%
- viability, T/C [26]: 0.99%
- viability, T/C [27]: 0.77%
- viability, T/C [28]: 0.49%
- viability, T/C [29]: 0.64%
- viability, T/C [30]: 1.1%

Structure (SMILES): COc1ccc([C@@H](O)c2cc(-c3ncnc4cc(N5CCOCC5)ccc34)c(F)cc2Cl)nn1 + COc1cc2c(cc1O)CCNC21CSC2c3c(OC(C)=O)c(C)c4c(c3C(COC1=O)N1C(O)C3Cc5cc(C)c(OC)c(O)c5C(C21)N3C)OCO4
- IC50 (second compound 30 pM): 7190 nM
- IC50 (second compound 94.9 pM): 4600 nM
- IC50 (second compound 0.0003 µM): 1070 nM
- IC50 (second compound 0.000949 µM): < 31.6 nM
- IC50 (second compound 0.003 µM): < 31.6 nM
- viability, T/C [1]: 102%
- viability, T/C [2]: 102%
- viability, T/C [3]: 96.4%
- viability, T/C [4]: 88.8%
- viability, T/C [5]: 79.6%
- viability, T/C [6]: 38.8%
- viability, T/C [7]: 96.3%
- viability, T/C [8]: 97.3%
- viability, T/C [9]: 93.4%
- viability, T/C [10]: 70.8%
- viability, T/C [11]: 65.9%
- viability, T/C [12]: 26.9%
- viability, T/C [13]: 84.1%
- viability, T/C [14]: 83.1%
- viability, T/C [15]: 84%
- viability, T/C [16]: 48%
- viability, T/C [17]: 23.6%
- viability, T/C [18]: 6.67%
- viability, T/C [19]: 36.2%
- viability, T/C [20]: 32.6%
- viability, T/C [21]: 19.4%
- viability, T/C [22]: 4.23%
- viability, T/C [23]: 0.86%
- viability, T/C [24]: 0.73%
- viability, T/C [25]: 0.88%
- viability, T/C [26]: 0.57%
- viability, T/C [27]: 0.41%
- viability, T/C [28]: 1.06%
- viability, T/C [29]: 1.12%
- viability, T/C [30]: 1.01%

Structure (SMILES): Cc1cc(C)c(CNC(=O)c2cc(-c3ccc(CN4CCOCC4)cc3)cc3c2cnn3C2CCCC2)c(=O)[nH]1 + COc1cc2c(cc1O)CCNC21CSC2c3c(OC(C)=O)c(C)c4c(c3C(COC1=O)N1C(O)C3Cc5cc(C)c(OC)c(O)c5C(C21)N3C)OCO4
- IC50 (second compound 30 pM): > 10000 nM
- IC50 (second compound 94.9 pM): > 10000 nM
- IC50 (second compound 0.0003 µM): 10000 nM
- IC50 (second compound 0.000949 µM): < 31.6 nM
- IC50 (second compound 0.003 µM): < 31.6 nM
- viability, T/C [1]: 97.9%
- viability, T/C [2]: 99.7%
- viability, T/C [3]: 104%
- viability, T/C [4]: 96.7%
- viability, T/C [5]: 92%
- viability, T/C [6]: 66.7%
- viability, T/C [7]: 95.4%
- viability, T/C [8]: 106%
- viability, T/C [9]: 102%
- viability, T/C [10]: 103%
- viability, T/C [11]: 88.4%
- viability, T/C [12]: 57.9%
- viability, T/C [13]: 74.7%
- viability, T/C [14]: 76%
- viability, T/C [15]: 84%
- viability, T/C [16]: 80.7%
- viability, T/C [17]: 71.5%
- viability, T/C [18]: 49.8%
- viability, T/C [19]: 35.7%
- viability, T/C [20]: 39.9%
- viability, T/C [21]: 37.5%
- viability, T/C [22]: 36.1%
- viability, T/C [23]: 27.6%
- viability, T/C [24]: 17.8%
- viability, T/C [25]: 0.71%
- viability, T/C [26]: 0.36%
- viability, T/C [27]: 0.51%
- viability, T/C [28]: 0.31%
- viability, T/C [29]: 0.29%
- viability, T/C [30]: 0.83%

Structure (SMILES): [2H]c1nc(C)nc([2H])c1-c1cc(NC[C@@H](C)c2cccc3c(C(=O)NC)ccnc23)ncn1 + COc1cc2c(cc1O)CCNC21CSC2c3c(OC(C)=O)c(C)c4c(c3C(COC1=O)N1C(O)C3Cc5cc(C)c(OC)c(O)c5C(C21)N3C)OCO4
- IC50 (second compound 30 pM): > 10000 nM
- IC50 (second compound 94.9 pM): > 10000 nM
- IC50 (second compound 0.0003 µM): > 10000 nM
- IC50 (second compound 0.000949 µM): < 31.6 nM
- IC50 (second compound 0.003 µM): < 31.6 nM
- viability, T/C [1]: 91.1%
- viability, T/C [2]: 100%
- viability, T/C [3]: 98%
- viability, T/C [4]: 93.3%
- viability, T/C [5]: 90.3%
- viability, T/C [6]: 101%
- viability, T/C [7]: 95.7%
- viability, T/C [8]: 90.7%
- viability, T/C [9]: 98.1%
- viability, T/C [10]: 93.8%
- viability, T/C [11]: 89.4%
- viability, T/C [12]: 91.2%
- viability, T/C [13]: 87.2%
- viability, T/C [14]: 83.2%
- viability, T/C [15]: 79.4%
- viability, T/C [16]: 70.3%
- viability, T/C [17]: 74.9%
- viability, T/C [18]: 75.4%
- viability, T/C [19]: 37.3%
- viability, T/C [20]: 26.5%
- viability, T/C [21]: 44.4%
- viability, T/C [22]: 44.1%
- viability, T/C [23]: 42.6%
- viability, T/C [24]: 21.9%
- viability, T/C [25]: 0.62%
- viability, T/C [26]: 1.1%
- viability, T/C [27]: 1.05%
- viability, T/C [28]: 0.69%
- viability, T/C [29]: 0.48%
- viability, T/C [30]: 0.77%
